Data: patent US9261498B2, “Biomarker for sensitivity to mTOR inhibitor therapy in kidney cancer” (The Regents of the University of California, priority 2005, dated 2016)
“Also recorded” adds a separate entry of the source.

Columns and labels:
Assay type in all cases: cell-based, human
[1] = test system: HIF-1α mRNA; experiment: Real-time quantitative RT-PCR of HIF-1α transcript; details: 10 nM CCI-779
Experimental: Total RNA was extracted from SN12C-CSCG, ACHN-CSCG, SN12C-CSCG-VHLshRNA and ACHN-CSCG-VHL shRNA cell lines treated with vehicle or 10 nM of CCI-779 using the RNeasy kit (Qiagen). Two μg of total RNA was used as a template for the production of c DNA through reverse transcription. The reactions were assembled as in a 25 μl final volume as follows: 1 μM primers (random hexamers; Invitrogen), 10 mM DTT, 1X Superscript II buffer, […] of dATP, dCTP, dGTP and dTTP, 10U RNasin, 200 units of Superscript II reverse transcriptase. Each RNA template, primer and nuclease free water were combined and incubated for 10 minutes, then placed in an ice bath. The remaining reaction components were added and each reaction was incubated at 25° C. for 10 minutes, then 42° C. for 60 minutes and finally 70° C. for 15 minutes. Negative control reactions (which contained no RT enzyme) were also assembled. Real-time PCR was performed on an ABI Prism 7700 sequence detector (Applied Biosystems). Primers and specific probes for HIF-1α and 18S were obtained from Assays-on Demand Gene Expression products (Applied Biosystems). […] Threshold cycles (Ct's) for the RT samples were recorded. […] Tracer uptake by the tumors was expressed as the ratio between the maximum intratumoral and mean hepatic counts/pixel. All quantitative values are reported as mean±standard error of the mean (SEM).

[2] = test system: HIF-2α; experiment: Immunoblot of HIF-2α protein in VHL knockdown RCC cells; details: 1 and 10 nM CCI-779, 24 hours
Experimental: (§1) (a) SN12C-CSCG and SN12C-VHLshRNA cell were treated with vehicle, 1 nM or 10 nM of CCI-779 and lysed 24 hours later. Lysates were subjected to immunoblotting for HIF-1α, HIF-2α, GLUT-1, CA-IX, p-eIF4G, p-S6 Ribosomal protein. Equal protein loading was verified using anti-β-actin antibody. (b) HIF-1α expression was probed by immunoblotting in SN12C-MSCV-5′TOP-HIF-1α cDNA (left panel) and SN12C-MSCV-HIF-1α cDNA (tight panel) post 24 hours of vehicle, 1 nM or 10 nM of CCI-779.
(§2) Cells and xenograft tumors were lysed in ECB lysis buffer (see, e.g. Kondo et al., Cancer Cell 1, 237-46 (2002)) or high-detergent buffer (2% SDS), (see, e.g. Chen et al., Nat Med 10, 33-9 (2004)), respectively, supplemented with complete protease and phosphatase inhibitor cocktails (Calbiochem). […] Bound antibody was detected using enhanced chemiluminescence (ECL, Amersham). For VEGF ELISA quantification, cells were plated in 6 well plates (1×10^5 per well). […] Thirty-six hours later, VEGF ELISA (R&D Systems) was performed according to the manufacturer's instructions, using a Fisher Plate reader. […]
(§3) Cells and xenograft tumors were lysed in ECB lysis buffer or high-detergent buffer (2% SDS), respectively, supplemented with complete protease and phosphatase inhibitor cocktails (Calbiochem). […] Bound antibody was detected using enhanced chemiluminescence (ECL, Amersham). […]

[3] = test system: GLUT-1, CA-IX and VEGF; experiment: Expression of HIF target genes GLUT-1, CA-IX and VEGF in VHL knockdown cells; details: 1 and 10 nM CCI-779
Experimental: as §1, §2, §3

CO[C@H]1C[C@@H]2CC[C@@H](C)[C@@](O)(O2)C(=O)C(=O)N2CCCC[C@H]2C(=O)O[C@H]([C@H](C)C[C@@H]2CC[C@@H](OC(=O)C(C)(CO)CO)[C@H](OC)C2)CC(=O)[C@H](C)/C=C(\C)[C@@H](O)[C@@H](OC)C(=O)[C@H](C)C[C@H](C)/C=C/C=C/C=C/1C [CCI-779]
HIF-1α transcript (mRNA) levels [1]: no effect; also recorded: without exerting any effect on transcription; also recorded: did not see any changes
HIF-2α protein levels [2]: dramatically reduced; also recorded: reduction; also recorded: decrease
expression of GLUT-1, CA-IX and VEGF [3]: similarly reduced; also recorded: decrease in the expression
